We go through 25 molecules from ChEMBL document CHEMBL3813644, “Utilization of Structure-Based Design to Identify Novel, Irreversible Inhibitors of EGFR Harboring the T790M Mutation” (ACS Med Chem Lett, 2016).

Data set [1] deals with Epidermal growth factor receptor (Homo sapiens, UniProt P00533, EX19DEL). Briefly: Inhibition of EGFR exon19 deletion activating mutant autophosphorylation in human PC9 cells incubated for 2 hrs by ELISA. The format is cell-based, PC-9. For orientation: ELISA stands for enzyme-linked immunosorbent assay.
Data set [2] in a line: Intrinsic clearance in human liver microsomes. The format is ADME. Conditions: read-out: CLH. A general note: Liver microsomes are vesicles of endoplasmic reticulum, rich in cytochrome P450 enzymes.
The nature of data set [3]: Solubility of compound at pH 7.4. The format is physicochemical. Conditions: buffer.
In data set [4] the target is Epidermal growth factor receptor (Homo sapiens, UniProt P00533). Briefly: Inhibition of wild-type EGFR autophosphorylation in human LoVo cells incubated for 2 hrs followed by EGF-stiumlation for 10 mins by ELISA. The format is cell-based.
The target in data set [5] is T1, Epidermal growth factor receptor (Homo sapiens, UniProt P00533, L858R/T790M). Briefly: Inhibition of EGFR T790M/L858R double mutant autophosphorylation in human NCI-H1975 cells incubated for 2 hrs by ELISA. It counts as cell-based.
The nature of data set [6]: Chemical stability of compound. It counts as physicochemical.
The species named for a further data set is Homo sapiens. Kind of data set: Selectivity ratio of IC50 for wild-type EGFR (unknown origin) to IC50 for recombinant N-terminal GST-tagged human EGFR T790M/L858R double mutant.
Data set [7] has as its target T1, Epidermal growth factor receptor. Briefly: Inhibition of recombinant N-terminal GST-tagged human EGFR T790M/L858R double mutant using biotinylated TK substrate incubated for 50 mins by HTRF assay. It counts as protein assay.
Data set [8] concerns Epidermal growth factor receptor (Homo sapiens), P00533 [T790M]. Kind of data set: Reversible inhibition of EGFR T790M mutant (unknown origin).

One may read the EC50 as the concentration needed to bring the measured effect to its halfway point. The low end stands for greater potency, the high end for weaker potency. In general, solubility refers to how much of the substance goes into solution per volume. Lower therefore signals little dissolved substance. By IC50 is commonly meant the point on the concentration scale where inhibition reaches its midpoint.

Converted amounts (≈) assume the structure as drawn. The source made the active and inactive calls. The calls are words filed in the database; no cut-off is given here. Some results are limits rather than exact numbers.

Chain of Epidermal growth factor receptor (Homo sapiens, UniProt P00533, EX19DEL) (P00533 whole entry, looked up, stated change not applied): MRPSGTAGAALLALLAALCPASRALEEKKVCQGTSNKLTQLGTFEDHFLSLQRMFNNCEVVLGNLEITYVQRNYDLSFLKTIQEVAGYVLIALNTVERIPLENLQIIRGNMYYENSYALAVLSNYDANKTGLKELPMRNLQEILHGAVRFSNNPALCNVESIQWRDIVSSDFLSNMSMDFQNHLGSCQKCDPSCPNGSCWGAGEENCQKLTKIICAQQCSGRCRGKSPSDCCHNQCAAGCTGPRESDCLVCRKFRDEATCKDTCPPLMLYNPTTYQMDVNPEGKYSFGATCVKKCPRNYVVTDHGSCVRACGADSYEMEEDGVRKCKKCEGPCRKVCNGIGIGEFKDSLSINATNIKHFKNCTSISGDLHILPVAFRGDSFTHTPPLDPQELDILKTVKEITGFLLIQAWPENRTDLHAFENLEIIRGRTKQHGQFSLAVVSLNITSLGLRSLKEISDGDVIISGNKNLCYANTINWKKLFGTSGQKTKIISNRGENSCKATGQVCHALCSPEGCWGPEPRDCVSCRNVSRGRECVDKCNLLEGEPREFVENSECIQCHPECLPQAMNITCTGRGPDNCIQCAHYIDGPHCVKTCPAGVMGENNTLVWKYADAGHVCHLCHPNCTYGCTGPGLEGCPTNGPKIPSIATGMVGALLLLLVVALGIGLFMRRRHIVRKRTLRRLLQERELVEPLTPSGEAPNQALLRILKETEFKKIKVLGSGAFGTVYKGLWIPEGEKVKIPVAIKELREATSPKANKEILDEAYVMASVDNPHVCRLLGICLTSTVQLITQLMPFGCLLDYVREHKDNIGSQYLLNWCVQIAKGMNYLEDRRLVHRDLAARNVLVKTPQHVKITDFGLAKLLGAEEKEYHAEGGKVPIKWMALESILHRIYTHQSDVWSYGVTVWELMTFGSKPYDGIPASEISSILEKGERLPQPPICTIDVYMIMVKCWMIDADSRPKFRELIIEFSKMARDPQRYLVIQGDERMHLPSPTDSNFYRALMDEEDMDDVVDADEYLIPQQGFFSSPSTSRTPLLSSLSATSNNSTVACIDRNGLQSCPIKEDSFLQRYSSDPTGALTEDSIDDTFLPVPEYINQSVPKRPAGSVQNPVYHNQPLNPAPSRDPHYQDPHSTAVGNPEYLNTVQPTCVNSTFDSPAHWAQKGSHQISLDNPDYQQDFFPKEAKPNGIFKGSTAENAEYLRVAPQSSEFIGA
Chain of Epidermal growth factor receptor (Homo sapiens, UniProt P00533) (P00533 whole entry): as the sequence (P00533 whole entry, looked up, stated change not applied) above
T1 sequence (P00533 25-1210 T790M/L858R limits assumed): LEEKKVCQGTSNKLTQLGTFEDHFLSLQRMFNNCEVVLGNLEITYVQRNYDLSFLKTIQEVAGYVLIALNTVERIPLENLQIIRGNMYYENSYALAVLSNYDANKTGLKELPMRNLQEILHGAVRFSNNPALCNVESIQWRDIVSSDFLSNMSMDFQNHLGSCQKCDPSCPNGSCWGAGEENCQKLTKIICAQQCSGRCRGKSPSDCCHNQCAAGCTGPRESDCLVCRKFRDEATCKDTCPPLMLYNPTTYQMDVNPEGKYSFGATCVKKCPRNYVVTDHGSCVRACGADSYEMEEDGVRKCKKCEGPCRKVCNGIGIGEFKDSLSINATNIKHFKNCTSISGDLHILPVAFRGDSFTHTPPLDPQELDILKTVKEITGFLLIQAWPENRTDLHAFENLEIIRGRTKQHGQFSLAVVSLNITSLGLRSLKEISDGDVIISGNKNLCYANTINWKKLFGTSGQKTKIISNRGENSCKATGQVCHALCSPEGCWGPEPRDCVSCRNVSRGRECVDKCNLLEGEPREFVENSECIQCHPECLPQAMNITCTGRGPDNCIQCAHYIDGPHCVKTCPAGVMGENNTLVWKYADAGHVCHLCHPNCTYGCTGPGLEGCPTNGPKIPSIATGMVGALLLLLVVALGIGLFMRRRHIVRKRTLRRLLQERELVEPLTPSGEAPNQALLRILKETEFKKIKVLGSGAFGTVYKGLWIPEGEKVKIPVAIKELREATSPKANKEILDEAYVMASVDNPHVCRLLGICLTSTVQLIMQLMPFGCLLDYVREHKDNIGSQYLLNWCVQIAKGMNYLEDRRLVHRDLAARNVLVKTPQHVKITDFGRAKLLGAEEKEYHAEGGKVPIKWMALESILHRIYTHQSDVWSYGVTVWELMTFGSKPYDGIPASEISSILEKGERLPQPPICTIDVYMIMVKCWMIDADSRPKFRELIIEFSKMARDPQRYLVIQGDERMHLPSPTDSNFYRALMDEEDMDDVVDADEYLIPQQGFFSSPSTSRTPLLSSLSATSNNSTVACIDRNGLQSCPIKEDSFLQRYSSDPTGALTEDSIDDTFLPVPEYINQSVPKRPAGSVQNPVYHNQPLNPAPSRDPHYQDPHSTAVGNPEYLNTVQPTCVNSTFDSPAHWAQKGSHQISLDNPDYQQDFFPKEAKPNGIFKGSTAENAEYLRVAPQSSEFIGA
Chain of Epidermal growth factor receptor (Homo sapiens), P00533 [T790M] (P00533 whole entry T790M): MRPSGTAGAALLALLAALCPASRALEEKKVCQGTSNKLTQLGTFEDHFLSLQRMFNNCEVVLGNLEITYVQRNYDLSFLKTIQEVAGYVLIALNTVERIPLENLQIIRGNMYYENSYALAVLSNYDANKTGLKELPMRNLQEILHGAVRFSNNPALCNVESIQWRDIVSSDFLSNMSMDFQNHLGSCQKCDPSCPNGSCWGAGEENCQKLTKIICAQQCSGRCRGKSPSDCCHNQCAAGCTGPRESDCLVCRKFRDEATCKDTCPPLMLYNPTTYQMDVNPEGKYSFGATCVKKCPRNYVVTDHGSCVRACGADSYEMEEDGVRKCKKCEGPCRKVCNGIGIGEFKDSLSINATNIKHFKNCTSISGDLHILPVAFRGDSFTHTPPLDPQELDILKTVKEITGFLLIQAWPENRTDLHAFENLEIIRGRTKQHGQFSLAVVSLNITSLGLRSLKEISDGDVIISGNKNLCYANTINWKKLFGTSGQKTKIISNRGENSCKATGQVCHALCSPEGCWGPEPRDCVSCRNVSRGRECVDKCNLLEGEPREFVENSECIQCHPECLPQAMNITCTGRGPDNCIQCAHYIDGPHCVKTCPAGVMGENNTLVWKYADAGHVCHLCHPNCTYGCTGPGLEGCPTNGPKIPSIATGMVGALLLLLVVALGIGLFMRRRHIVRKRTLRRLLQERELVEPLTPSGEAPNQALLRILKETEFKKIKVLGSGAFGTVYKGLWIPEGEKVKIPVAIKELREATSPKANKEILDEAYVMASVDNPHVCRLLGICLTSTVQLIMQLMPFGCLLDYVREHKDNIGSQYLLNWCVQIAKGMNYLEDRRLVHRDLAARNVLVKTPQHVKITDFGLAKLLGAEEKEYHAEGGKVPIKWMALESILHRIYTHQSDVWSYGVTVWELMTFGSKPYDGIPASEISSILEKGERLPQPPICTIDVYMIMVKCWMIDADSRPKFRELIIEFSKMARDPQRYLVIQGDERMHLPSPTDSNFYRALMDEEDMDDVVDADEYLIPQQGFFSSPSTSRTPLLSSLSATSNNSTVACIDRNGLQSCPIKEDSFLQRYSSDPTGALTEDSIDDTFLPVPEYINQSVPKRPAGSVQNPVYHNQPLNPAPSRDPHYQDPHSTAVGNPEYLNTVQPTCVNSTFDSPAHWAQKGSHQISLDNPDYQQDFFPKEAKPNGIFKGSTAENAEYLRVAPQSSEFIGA

Turning to `C=CC(=O)Nc1cccc(-n2c(-c3nc(-c4cnn(CCO)c4)cnc3N)nc3ccccc32)c1`, the values for the EC50 in data set [1], in [4] and in [5] were 8 nM, 2250 nM and 12 nM, respectively. Moreover, the microsomal CLint in data set [2] was 54 µL/min/mg. For the same molecule, the solubility in data set [3] was less than 10 µM.
With `C=C(C)C(=O)Nc1cccc(-n2c(-c3nc(-c4cnn(C5CCN(C)CC5)c4)cnc3N)nc3ccccc32)c1`, the EC50 is 9130 nM in [1], more than 30000 nM in data set [4] and more than 20000 nM in [5].
With `C=CC(=O)Nc1cccc(-n2c(-c3nc(-c4cnn(C)c4)cnc3N)nc3ccccc32)c1`, the EC50 is 9 nM in data set [1], 1070 nM in [4] and 10 nM in [5]. The microsomal CLint in [2] came to 24 µL/min/mg. The same molecule displayed a solubility in data set [3] of less than 10 µM.
In the case of `C=CC(=O)Nc1ccc(Cn2c(-c3nc(-c4cnn(C5CCN(C)CC5)c4)cnc3N)nc3ccccc32)cc1`, the values for the EC50 in [1], in [4] and in [5] were 5060 nM, more than 30000 nM and 1780 nM, respectively.
`C=CC(=O)Nc1ccccc1Cn1c(-c2nc(-c3cnn(C4CCN(C)CC4)c3)cnc2N)nc2ccccc21`: the values for the EC50 in [1], in [4] and in data set [5] were 3 nM, 420 nM and 7 nM, respectively. Further, the solubility in data set [3] worked out at 35 µM (≈ 18.7 µg/mL). In addition, the Stability result in [6] is listed as “Unstable”.
On to `C=CC(=O)Nc1cccc(Cn2c(-c3nc(-c4cnn(C5CCN(C)CC5)c4)cnc3N)nc3ccccc32)c1`, for which the EC50 is 280 nM in data set [1], more than 25000 nM in [4] and 360 nM in data set [5].
Consider `C=CC(=O)Nc1ccc(-n2c(-c3nc(-c4cnn(C5CCN(C)CC5)c4)cnc3N)nc3ccccc32)cc1`, for which the figures for the EC50 in [1], in data set [4] and in data set [5] were 120 nM, 3380 nM and 550 nM, respectively.
For `CN1CCC(n2cc(-c3cnc(N)c(-c4nc5ccccc5[nH]4)n3)cn2)CC1`, in the data set filed under Homo sapiens, the Ratio IC50 came to 5. In addition, in data set [7], the IC50 is 290 nM. Also, the inhibition entry in data set [8] is “Active”.
With `C=CC(=O)Nc1cccc(-n2c(-c3nc(-c4cnn(C5CCN(C)CC5)c4)cnc3N)nc3ccccc32)c1F`, the half-maximal effective concentration (EC50) was 26 nM in data set [1], 2060 nM in data set [4] and 23 nM in data set [5]. This molecule had a solubility in data set [3] of less than 10 µM.
Consider `C=CC(=O)NCCn1c(-c2nc(-c3cnn(C4CCN(C)CC4)c3)cnc2N)nc2ccccc21`, for which the IC50 in [7] is 2200 nM. Besides, the concentration for a half-maximal effect (EC50) in data set [5] is 14900 nM.
Consider `C=CC(=O)Nc1cccc(-n2c(-c3nc(-c4cnn(C5CCN(C(C)C)CC5)c4)cnc3N)nc3ccccc32)c1`, for which the results for the EC50 in data set [1], in data set [4] and in data set [5] were 9 nM, 760 nM and 14 nM, respectively. In addition, in [2], the microsomal CLint came out at 37 µL/min/mg. For the same molecule, the solubility in data set [3] is less than 10 µM.
Regarding `C=CC(=O)Nc1cc(-n2c(-c3nc(-c4cnn(C5CCN(C)CC5)c4)cnc3N)nc3ccccc32)ccc1OC`, the half-maximal effective concentration (EC50) was 370 nM in data set [1], more than 20000 nM in [4] and 1340 nM in data set [5]. The molecule further registered a solubility in data set [3] of less than 10 µM.
In the case of `C=CC(=O)Nc1cccc(-n2c(-c3nc(-c4cnn(C5CCN(C(=O)CN(C)C)CC5)c4)cnc3N)nc3ccccc32)c1`, the figures for the EC50 in data set [1], in data set [4] and in data set [5] were 13 nM, 1140 nM and 15 nM, respectively. Further, in data set [2], the microsomal CLint worked out at 66 µL/min/mg. Besides, in [3], the concentration in solution (solubility) came to 18 µM (≈ 10.6 µg/mL).
The like results for `C=CC(=O)Nc1cccc(-n2c(-c3nc(-c4cnn(C5CCN(C(C)=O)CC5)c4)cnc3N)nc3ccccc32)c1` were, in that order, 23 nM, 3510 nM, 22 nM, more than 300 µL/min/mg and less than 10 µM.
With `C=CC(=O)Nc1cccc(-n2c(-c3nc(-c4cnn(C5CCN(C(=O)CO)CC5)c4)cnc3N)nc3ccccc32)c1`, the figures for the EC50 in data set [1], in data set [4] and in data set [5] were 18 nM, 3000 nM and 24 nM, respectively. Besides, in [2], the microsomal CLint was more than 300 µL/min/mg. This molecule gave a solubility in [3] of less than 10 µM.
For `CCn1c(-c2nc(-c3cnn(C4CCN(C)CC4)c3)cnc2N)nc2ccccc21`, the Ratio IC50 in the data set filed under Homo sapiens was determined as 5. Further, in [7], the IC50 came out at 50 nM. Besides, the inhibition entry in data set [8] was “Active”.
As for `C=CC(=O)N(C)c1cccc(-n2c(-c3nc(-c4cnn(C5CCN(C)CC5)c4)cnc3N)nc3ccccc32)c1`, the EC50 in [1] is 250 nM; in [4] it was 10900 nM; in data set [5] it was 390 nM.
Consider `C=CC(=O)Nc1cccc(-n2c(-c3nc(-c4cnn(C5CCN(CC)CC5)c4)cnc3N)nc3ccccc32)c1`, for which the values for the EC50 in [1], in [4] and in data set [5] were 16 nM, 1960 nM and 9 nM, respectively. For the same molecule, the microsomal CLint in [2] is 197 µL/min/mg. The molecule also displayed a solubility in data set [3] of less than 10 µM.
For `C=CC(=O)Nc1cccc(-n2c(-c3nc(-c4cnn(C5CCN(C)CC5)c4)cnc3N)nc3cnccc32)c1` the same measures were 10 nM, 4390 nM, 18 nM, 169 µL/min/mg and 300 µM (≈ 156 µg/mL).
`C=CC(=O)Nc1cccc(-n2c(-c3nc(-c4cnn(CCN5CCN(C)CC5)c4)cnc3N)nc3ccccc32)c1`: the concentration giving a half-maximal response (EC50) was 15 nM in data set [1], 2310 nM in data set [4] and 15 nM in data set [5]. Moreover, the microsomal CLint in data set [2] amounted to 60 µL/min/mg. Further, the concentration in solution in data set [3] (solubility) was 30 µM (≈ 16.5 µg/mL).
With `C=CC(=O)Nc1cccc(-n2c(-c3nc(-c4cnn(C5CCN(C)CC5)c4)cnc3N)nc3ccncc32)c1`, the figures for the EC50 in data set [1], in [4] and in [5] were 100 nM, more than 15000 nM and 150 nM, respectively. Moreover, the microsomal CLint in data set [2] came out at 68 µL/min/mg. The molecule also returned a solubility in data set [3] of 540 µM (≈ 281 µg/mL).
Turning to `CC(=O)Nc1cccc(-n2c(-c3nc(-c4cnn(C5CCN(C)CC5)c4)cnc3N)nc3ccccc32)c1`, the results for the EC50 in [1], in [4] and in [5] were 8010 nM, more than 30000 nM and more than 30000 nM, respectively.
In the case of `C=CC(=O)Nc1ccc(F)c(-n2c(-c3nc(-c4cnn(C5CCN(C)CC5)c4)cnc3N)nc3ccccc32)c1`, the EC50 in [1] was 43 nM; in data set [4], 4390 nM; in data set [5] it was 73 nM. In data set [3], the solubility is less than 10 µM.
Turning to `C=CC(=O)Nc1cccc(-n2c(-c3nc(-c4cnn(CCN5CCOCC5)c4)cnc3N)nc3ccccc32)c1`, the EC50 in data set [1] is 22 nM; in data set [4] it was 5000 nM; in data set [5] it was 24 nM. In data set [2], the microsomal CLint came to 298 µL/min/mg. The molecule also registered a solubility in data set [3] of less than 10 µM.
For `C=CC(=O)NCCCn1c(-c2nc(-c3cnn(C4CCN(C)CC4)c3)cnc2N)nc2ccccc21`, the IC50 in data set [7] was 200 nM. This molecule also had an EC50 in data set [5] of 1710 nM.
